Data published in ChEMBL document CHEMBL5370634, “Synthesis and Antifungal Evaluation of New Azole Derivatives against Candida albicans” (ACS Med Chem Lett, 2023).
Values after ≈ are worked out from the molar mass of the structure shown. Active and inactive are the calls of the source. No cut-off for these calls is given here.

Experiments:
Candida albicans [1] = assay: Antifungal activity against Candida albicans SC5314 incubated for 24 hrs in presence of fluconazole by microdilution method; assay type: functional
Candida albicans [2] = assay: Antifungal activity against Candida albicans SC5314FR incubated for 24 hrs by microdilution method; assay type: functional
Candida albicans [3] = assay: Antifungal activity against Candida albicans SC5314FR incubated for 24 hrs in presence of fluconazole by microdilution method; assay type: functional, SC5314
Candida albicans [4] = assay: Antifungal activity against Candida albicans SC5314 assessed as fractional inhibitory concentration index incubated for 24 hrs in presence of fluconazole by microdilution method; assay type: functional
Candida albicans [5] = assay: Antifungal activity against Candida albicans SC5314FR assessed as fractional inhibitory concentration index incubated for 24 hrs in presence of fluconazole by microdilution method; assay type: functional
Candida albicans [6] = assay: Antifungal activity against Candida albicans SC5314 incubated for 24 hrs by microdilution method; assay type: functional
Candida albicans [7] = assay: Antibiofilm activity against Candida albicans SC5314 assessed as inhibition of biofilm formation at 0.3 ug/mL incubated for 24 hrs by crystal violet staining based inverted microscopy analysis; assay type: functional, organism-based; conditions: dose 0.3 µg/ml
Candida albicans [8] = assay: Induction of morphological changes in Candida albicans SC5314 assessed as appearance of slightly blurred cytoplasm at 0.3 ug/ml incubated for 16 hrs by TEM analysis; assay type: functional, organism-based; conditions: dose 0.3 µg/ml
Candida albicans [9] = assay: Induction of cell membrane permeability in Candida albicans SC5314 at 0.3 ug/mL incubated for 16 hrs by […] iodide staining based fluorescence microscopy; assay type: functional, organism-based; conditions: dose 0.3 µg/ml
[10] = target: T1, Lanosterol 14-alpha demethylase (Candida albicans (strain SC5314 / ATCC MYA-2876) (Yeast), UniProt P10613); assay: Inhibition of CYP51 in Candida albicans SC5314 assessed as reduction in ergosterol content at 0.3 ug/mL incubated for 16 hrs by spectrophotometry analysis; conditions: at 0.3 µg/mL
T1 sequence (P10613 whole entry): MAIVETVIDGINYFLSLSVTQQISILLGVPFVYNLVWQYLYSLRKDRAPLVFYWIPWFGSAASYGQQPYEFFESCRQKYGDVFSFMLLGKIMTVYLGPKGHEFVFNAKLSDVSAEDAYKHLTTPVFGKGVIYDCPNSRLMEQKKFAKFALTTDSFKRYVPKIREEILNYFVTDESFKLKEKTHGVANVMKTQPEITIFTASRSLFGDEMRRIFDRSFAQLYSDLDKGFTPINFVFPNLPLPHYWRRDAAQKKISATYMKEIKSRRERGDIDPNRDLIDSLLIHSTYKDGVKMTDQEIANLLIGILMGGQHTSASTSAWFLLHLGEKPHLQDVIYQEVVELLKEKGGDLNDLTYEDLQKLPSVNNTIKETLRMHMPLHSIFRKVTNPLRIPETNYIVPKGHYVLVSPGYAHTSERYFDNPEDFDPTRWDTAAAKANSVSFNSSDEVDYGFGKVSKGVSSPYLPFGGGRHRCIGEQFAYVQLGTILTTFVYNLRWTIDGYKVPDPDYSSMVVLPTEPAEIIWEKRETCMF

Candida albicans [11] = assay: Induction of morphological changes in Candida albicans SC5314 assessed as leaking of intracellular substances incubated for 16 hrs by TEM analysis; assay type: functional, organism-based; conditions: dose 0.15-0.6 µg/ml
Candida albicans [12] = assay: Induction of morphological changes in Candida albicans SC5314 assessed as appearance of incomplete cell wall structure incubated for 16 hrs by TEM analysis; assay type: functional, organism-based; conditions: dose 0.15-0.6 µg/ml
[13] = target: T1, Lanosterol 14-alpha demethylase; assay: Inhibition of CYP51 in Candida albicans SC5314 assessed as reduction in ergosterol content at 0.15 to 0.6 ug/mL incubated for 16 hrs by spectrophotometry analysis; conditions: at 0.15 to 0.6 µg/mL, dose 0.15-0.6 µg/ml
Candida albicans [14] = assay: Antibiofilm activity against Candida albicans SC5314 assessed as inhibition of biofilm formation at 0.3 ug/mL incubated for 24 hrs in presence of fluconazole by crystal violet staining based inverted microscopy analysis; assay type: functional, organism-based; conditions: dose 0.3 µg/ml
Candida albicans [15] = assay: Induction of morphological changes in Candida albicans SC5314 assessed as appearance of blurred boundary between cell wall and cell membrane incubated for 16 hrs by TEM analysis; assay type: functional, organism-based; conditions: dose 0.15-0.6 µg/ml
Candida albicans [16] = assay: Induction of cell membrane permeability in Candida albicans SC5314 at 0.15 to 0.6 ug/mL incubated for 16 hrs by […] iodide staining based fluorescence microscopy; assay type: functional, organism-based; conditions: dose 0.15-0.6 µg/ml
Candida albicans [17] = assay: Antibiofilm activity against Candida albicans SC5314 assessed as inhibition of biofilm formation at 0.15 to 0.6 ug/mL incubated for 24 hrs by crystal violet staining based inverted microscopy analysis; assay type: functional, organism-based; conditions: dose 0.15-0.6 µg/ml
Candida albicans [18] = assay: Induction of morphological changes in Candida albicans SC5314 assessed as appearance of unclear cell membrane outline incubated for 16 hrs by TEM analysis; assay type: functional, organism-based; conditions: dose 0.15-0.6 µg/ml
Candida albicans [19] = assay: Induction of morphological changes in Candida albicans SC5314 assessed as chaotic dissolution of cytoplasm incubated for 16 hrs by TEM analysis; assay type: functional, organism-based; conditions: dose 0.15-0.6 µg/ml
Candida albicans [20] = assay: Induction of morphological changes in Candida albicans SC5314 assessed as appearance of broken slag-like material incubated for 16 hrs by TEM analysis; assay type: functional, organism-based; conditions: dose 0.15-0.6 µg/ml
Candida albicans [21] = assay: Induction of morphological changes in Candida albicans SC5314 assessed as appearance of loose texture incubated for 16 hrs by TEM analysis; assay type: functional, organism-based; conditions: dose 0.15-0.6 µg/ml
Candida albicans [22] = assay: Induction of morphological changes in Candida albicans SC5314 assessed as appearance of obvious defects incubated for 16 hrs by TEM analysis; assay type: functional, organism-based; conditions: dose 0.15-0.6 µg/ml
Candida albicans [23] = assay: Induction of morphological changes in Candida albicans SC5314 assessed as chaotic dissolution of vacuoles incubated for 16 hrs by TEM analysis; assay type: functional, organism-based; conditions: dose 0.15-0.6 µg/ml

Structure (SMILES)	MIC50 (Candida albicans [1])	MIC50 (Candida albicans [2])	MIC50 (Candida albicans [3])	fractional inhibitory concentration index (FICI) (Candida albicans [4])	fractional inhibitory concentration index (FICI) (Candida albicans [5])	MIC50 (Candida albicans [6])	also measured
CC(=O)N1CCN(c2ccc(OCCN(CC(O)(Cn3cncn3)c3ccc(F)cc3F)C(=O)c3ccc(Cl)cc3)cc2)CC1 (stereo unspecified)	0.91 µg/mL	> 200 µg/mL	147 µg/mL	0.64	0.73	6.79 µg/mL (≈ 10.6 µM)	–
CC(=O)N1CCN(c2ccc(OCCN(CC(O)(Cn3cncn3)c3ccc(F)cc3F)S(=O)(=O)c3ccc(Br)cc3)cc2)CC1 (stereo unspecified)	0.04 µg/mL	> 200 µg/mL	> 200 µg/mL	0.22	2	0.2 µg/mL (≈ 0.278 µM)	–
CC(=O)N1CCN(c2ccc(OCCN(Cc3ccc(F)c(F)c3)CC(O)(Cn3cncn3)c3ccc(F)cc3F)cc2)CC1 (stereo unspecified)	5.85 µg/mL	> 200 µg/mL	> 200 µg/mL	4.61	2	4.31 µg/mL (≈ 6.88 µM)	–
CC(=O)N1CCN(c2ccc(OCCN(Cc3ccc([N+](=O)[O-])cc3)CC(O)(Cn3cncn3)c3ccc(F)cc3F)cc2)CC1 (stereo unspecified)	0.002 µg/mL	> 200 µg/mL	> 200 µg/mL	0.03	2	0.08 µg/mL (≈ 0.126 µM)	–
CC(=O)N1CCN(c2ccc(OCCN(CC(O)(Cn3cncn3)c3ccc(F)cc3F)S(=O)(=O)CCCCl)cc2)CC1 (stereo unspecified)	0.16 µg/mL	> 200 µg/mL	> 200 µg/mL	0.33	2	0.66 µg/mL (≈ 1.03 µM)	–
CC(=O)N1CCN(c2ccc(OCCN(CC(O)(Cn3cncn3)c3ccc(F)cc3F)S(=O)(=O)c3ccc(Cl)cc3)cc2)CC1 (stereo unspecified)	3.88 µg/mL	33.2 µg/mL (≈ 49.2 µM)	> 200 µg/mL	2.61	13.42	8.49 µg/mL (≈ 12.6 µM)	–
CC(=O)N1CCN(c2ccc(OCCN(Cc3ccc(C(F)(F)F)cc3)CC(O)(Cn3cncn3)c3ccc(F)cc3F)cc2)CC1 (stereo unspecified)	1.76 µg/mL	> 200 µg/mL	> 200 µg/mL	1.94	2	1.83 µg/mL (≈ 2.78 µM)	–
C#CCN(CCOc1ccc(N2CCN(C(C)=O)CC2)cc1)CC(O)(Cn1cncn1)c1ccc(F)cc1F (stereo unspecified)	3.42 µg/mL	> 200 µg/mL	> 200 µg/mL	2.27	2	9.31 µg/mL (≈ 17.3 µM)	–
CC(=O)N1CCN(c2ccc(OCCN(CC(O)(Cn3cncn3)c3ccc(F)cc3F)S(=O)(=O)c3ccc(F)cc3)cc2)CC1 (stereo unspecified)	0.16 µg/mL	> 200 µg/mL	> 200 µg/mL	1.69	2	0.1 µg/mL (≈ 0.152 µM)	–
CC(=O)N1CCN(c2ccc(OCCN(CC(O)(Cn3cncn3)c3ccc(F)cc3F)C(=O)CCCl)cc2)CC1 (stereo unspecified)	1.83 µg/mL	> 200 µg/mL	190 µg/mL	1.11	0.95	19.4 µg/mL (≈ 32.9 µM)	–
OC(Cn1cncn1)(Cn1cncn1)c1ccc(F)cc1F [FLUCONAZOLE]	–	> 200 µg/mL	–	–	–	1.8 µg/mL (≈ 5.88 µM)	inhibition (Candida albicans [7]): inactive; Activity (Candida albicans [8]): Active; Activity (Candida albicans [9]): inactive; inhibition (INH) [10]: Not Active
COc1ccc(C(=O)CN(CCOc2ccc(N3CCN(C(C)=O)CC3)cc2)CC(O)(Cn2cncn2)c2ccc(F)cc2F)cc1OC (stereo unspecified)	1.22 µg/mL	> 200 µg/mL	> 200 µg/mL	0.71	2	35 µg/mL (≈ 51.5 µM)	–
C=CCN(CCOc1ccc(N2CCN(C(C)=O)CC2)cc1)CC(O)(Cn1cncn1)c1ccc(F)cc1F (stereo unspecified)	2.17 µg/mL	115 µg/mL (≈ 213 µM)	95.7 µg/mL	1.51	1.07	7.13 µg/mL (≈ 13.2 µM)	–
CC(=O)N1CCN(c2ccc(OCCN(CC(O)(Cn3cncn3)c3ccc(F)cc3F)C(=O)c3ccc(C(F)(F)F)cc3)cc2)CC1 (stereo unspecified)	3.32 µg/mL	> 200 µg/mL	> 200 µg/mL	2.03	2	17.9 µg/mL (≈ 26.6 µM)	–
CC(=O)N1CCN(c2ccc(OCCN(CC(O)(Cn3cncn3)c3ccc(F)cc3F)C(=O)c3cc(F)c(F)c(F)c3F)cc2)CC1 (stereo unspecified)	0.14 µg/mL	> 200 µg/mL	> 200 µg/mL	0.53	2	0.31 µg/mL (≈ 0.458 µM)	–
CC(=O)N1CCN(c2ccc(OCCN(Cc3ccc(Br)cc3)CC(O)(Cn3cncn3)c3ccc(F)cc3F)cc2)CC1 (stereo unspecified)	2.17 µg/mL	> 200 µg/mL	> 200 µg/mL	1.58	2	5.71 µg/mL (≈ 8.53 µM)	–
CC(=O)N1CCN(c2ccc(OCCN(CC(O)(Cn3cncn3)c3ccc(F)cc3F)S(=O)(=O)c3ccc(Cl)cc3Cl)cc2)CC1 (stereo unspecified)	0.09 µg/mL	> 200 µg/mL	> 200 µg/mL	4.55	2	0.02 µg/mL (≈ 0.0282 µM)	Activity (Candida albicans [11]): Dose-Dependent Effect; Activity (Candida albicans [12]): Dose-Dependent Effect; inhibition (INH) [13]: Active; inhibition (Candida albicans [14]): Active; Activity (Candida albicans [15]): Dose-Dependent Effect; Activity (Candida albicans [16]): Active; inhibition (Candida albicans [17]): Active; Activity (Candida albicans [18]): Dose-Dependent Effect; Activity (Candida albicans [19]): Dose-Dependent Effect; Activity (Candida albicans [20]): Dose-Dependent Effect; Activity (Candida albicans [21]): Dose-Dependent Effect; Activity (Candida albicans [22]): Dose-Dependent Effect; Activity (Candida albicans [23]): Dose-Dependent Effect
COc1ccc(S(=O)(=O)N(CCOc2ccc(N3CCN(C(C)=O)CC3)cc2)CC(O)(Cn2cncn2)c2ccc(F)cc2F)cc1 (stereo unspecified)	0.72 µg/mL	> 200 µg/mL	> 200 µg/mL	0.5	2	7.27 µg/mL (≈ 10.8 µM)	–
CC(=O)N1CCN(c2ccc(OCCN(CC(O)(Cn3cncn3)c3ccc(F)cc3F)S(=O)(=O)c3ccc(OC(F)(F)F)cc3)cc2)CC1 (stereo unspecified)	0.26 µg/mL	> 200 µg/mL	> 200 µg/mL	0.45	2	0.84 µg/mL (≈ 1.16 µM)	–
CC(=O)N1CCN(c2ccc(OCCN(CC(O)(Cn3cncn3)c3ccc(F)cc3F)C(=O)c3c(Cl)cccc3Cl)cc2)CC1 (stereo unspecified)	0.56 µg/mL	> 200 µg/mL	> 200 µg/mL	0.4	2	6.25 µg/mL (≈ 9.28 µM)	–
CC(=O)N1CCN(c2ccc(OCCN(CC(O)(Cn3cncn3)c3ccc(F)cc3F)C(=O)c3ccccc3Cl)cc2)CC1 (stereo unspecified)	2.5 µg/mL	> 200 µg/mL	> 200 µg/mL	1.61	2	11.3 µg/mL (≈ 17.8 µM)	–
CC(=O)N1CCN(c2ccc(OCCN(Cc3ccc(Cl)cc3)CC(O)(Cn3cncn3)c3ccc(F)cc3F)cc2)CC1 (stereo unspecified)	5.85 µg/mL	> 200 µg/mL	> 200 µg/mL	3.88	2	9.32 µg/mL (≈ 14.9 µM)	–
CC(=O)N1CCN(c2ccc(OCCN(Cc3ccc(C#N)cc3)CC(O)(Cn3cncn3)c3ccc(F)cc3F)cc2)CC1 (stereo unspecified)	0.68 µg/mL	> 200 µg/mL	> 200 µg/mL	1.08	2	0.99 µg/mL (≈ 1.61 µM)	–
